Laboratory results: patent US5229409A, “6-substituted-tetrahydrobenz[cd]indoles” (Eli Lilly and Company, priority 1991, dated 1993)
pIC50: −log10 of the molar value.

How the values were obtained:
5-HT1A receptor = target: T1, 5-HT1A receptor (Rattus norvegicus, UniProt P19327); test: [3H]8-OH-DPAT binding to 5-HT1A sites in hippocampal membranes; set-up: species or system rat (male Sprague-Dawley); conditions: [3H]8-OH-DPAT 1.0 nM, pH 7.4, 37° C
T1 construct: the brains were rapidly chilled and dissected to obtain the hippocampi; from tissue; host or cells: hippocampi of male Sprague-Dawley rats (150-250 g), washed membranes
T1 sequence (P19327 1-422): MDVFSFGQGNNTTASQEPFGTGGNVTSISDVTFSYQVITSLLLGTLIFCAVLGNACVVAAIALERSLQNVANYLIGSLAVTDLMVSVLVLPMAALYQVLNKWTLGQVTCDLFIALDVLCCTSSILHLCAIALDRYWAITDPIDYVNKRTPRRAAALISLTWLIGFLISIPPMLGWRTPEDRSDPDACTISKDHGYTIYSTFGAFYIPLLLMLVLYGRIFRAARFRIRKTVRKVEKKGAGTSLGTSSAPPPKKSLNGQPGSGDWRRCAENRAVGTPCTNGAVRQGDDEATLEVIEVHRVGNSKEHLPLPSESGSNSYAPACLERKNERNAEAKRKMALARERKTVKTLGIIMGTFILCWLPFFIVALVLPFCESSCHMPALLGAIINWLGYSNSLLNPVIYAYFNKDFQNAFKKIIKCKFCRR
Experimental: The affinities of the compounds at the central […] described by Taylor, et al., (J. Pharmacol. Exp. Ther. 236:118-125, 1986). Membranes for the binding assay were prepared from male Sprague-Dawley rats (150-250 g). The animals were killed by decapitation, and the brains were rapidly chilled and dissected to obtain the hippocampi. The hippocampi were either prepared that day or stored frozen (-70° C.) until the day of preparation. Membranes were prepared by homogenizing the tissue in 40 volumes of ice-cold Tris-HCl buffer (50 mM, pH 7.4 at 22° C.) using a Techmar Tissumizer (setting 65 for 15 sec), and the homogenate was centrifuged at 39800 xg for 10 min. The resulting pellet then resuspended in the same buffer, and the centrifugation and resuspension process was repeated three additional times to wash the membranes. Between the second and third washes the resuspended membranes were incubated for 10 min at 37° C. to facilitate the removal of endogenous ligands. The final pellet was resuspended in 67 mM Tris-HCl, pH 7.4, to a concentration of 2 mg of tissue original wet weight/200 μl. This homogenate was stored frozen (-70° C.) until the day of the binding assay. […] The assay tubes were incubated for 10 min at 37° C, and the contents were then rapidly filtered through GF/B filters (pretreated with 0.5% polyethylenimine), followed by four one-mL washes with ice cold buffer. The radioactivity trapped by the filters was quantitated by liquid scintillation spectrometry, and specific [^3 H]8-OH-DPAT binding to the 5-HT1A sites was defined as the difference between [^3 H]8-OH-DPAT bound in the presence and absence of 10 μM 5-HT.
The affinity of the particular compound at the 5-HT1A receptor is expressed as IC50 value, i.e., the concentration required to inhibit 50% of the binding. The IC50 values were determined from 12-point competition curves using nonlinear regression (SYSTAT, SYSTAT, INC., Evanston, Ill.).

serotonin = test: whole brain serotonin concentration in vivo in rats; set-up: species or system rat (male albino); conditions: 1 hour
Experimental: (§1) In another experiment certain compounds of the Examples were evaluated to determine ability to affect the 5-hydroxyindoles serotonin and 5-hydroxyindole acetic acid (5HIAA), and serum corticosterone, in vivo. Male albino rats were injected subcutaneously with an aqueous solution of the compound. The pH of the solution was adjusted as necessary to solubilize the compound. A control of the solution without the test compound was similarly injected into a control animal. The rats were decapitated one hour later. Trunk blood was collected and allowed to clot. After centrifugation, serum was stored frozen prior to analysis. The whole brain was removed and frozen on dry ice for storage prior to analysis. The serum corticosterone concentration was measured spectrofluorometrically using the procedure of Solem and Brinck-Johnson, "An Evaluation of a Method for Determination of Free Corticosteroids in Minute Quantities of Mouse Plasma", Scand. J. Clin. Lab. Invest., Suppl. 80, p. 1-14 (1965), incorporated herein by reference. 5-Hydroxyindoleacetic acid (5HIAA) concentration in whole brain was measured by liquid chromatography with electrochemical detection as reported by Fuller and Perry, "Effects of Buspirone and its Metabolite, 1-(2-pyrimidinyl)piperazine, on Brain Monoamines and Their Metabolites in Rats", J. Pharmacol. Exp. Ther., 248, p. 50-56 (1989), incorporated herein by reference.

[1] = system: 5-hydroxyindole acetic acid (5HIAA); test: whole brain 5-hydroxyindoleacetic acid (5HIAA) concentration in vivo in rats; set-up: species or system rat (male albino)
Experimental: as §1, with “The rats were decapitated one hour later.” left out

serum corticosterone = serum corticosterone concentration in vivo in rats; set-up: species or system rat (male albino); conditions: 1 hour
Experimental: as §1

[2] = 0.0003 mg/kg s.c., series 0.0003-0.03 mg/kg
[3] = 0.003 mg/kg s.c., series 0.0003-0.03 mg/kg
[4] = 0.03 mg/kg s.c., series 0.0003-0.03 mg/kg
[5] = 0.03 mg/kg s.c., series 0.03-3 mg/kg
[6] = 0.3 mg/kg s.c., series 0.03-3 mg/kg
[7] = 3 mg/kg s.c., series 0.03-3 mg/kg
[8] = 0.0003 mg/kg s.c., 1 hour, series 0.0003-0.03 mg/kg
[9] = 0.003 mg/kg s.c., 1 hour, series 0.0003-0.03 mg/kg
[10] = 0.03 mg/kg s.c., 1 hour, series 0.0003-0.03 mg/kg
[11] = 0.03 mg/kg s.c., 1 hour, series 0.03-3 mg/kg
[12] = 0.3 mg/kg s.c., 1 hour, series 0.03-3 mg/kg
[13] = 3 mg/kg s.c., 1 hour, series 0.03-3 mg/kg

SMILES | pIC50 (5-HT1A receptor) | Serotonin (serotonin; [2]) [nmol/g] | Serotonin (serotonin; [3]) [nmol/g] | Serotonin (serotonin; [4]) [nmol/g] | Serotonin (serotonin; [5]) [nmol/g] | Serotonin (serotonin; [6]) [nmol/g] | Serotonin (serotonin; [7]) [nmol/g] | 5HIAA [1, 8] [nmol/g] | 5HIAA [1, 9] [nmol/g] | 5HIAA [1, 10] [nmol/g] | 5HIAA [1, 11] [nmol/g] | 5HIAA [1, 12] [nmol/g] | 5HIAA [1, 13] [nmol/g] | Serum Corticosterone (serum corticosterone; [2]) [microg./100 ml] | Serum Corticosterone (serum corticosterone; [3]) [microg./100 ml] | Serum Corticosterone (serum corticosterone; [4]) [microg./100 ml] | Serum Corticosterone (serum corticosterone; [5]) [microg./100 ml] | Serum Corticosterone (serum corticosterone; [6]) [microg./100 ml] | Serum Corticosterone (serum corticosterone; [7]) [microg./100 ml] | also measured
CCCN(CCC)C1Cc2c[nH]c3ccc(C(C)=O)c(c23)C1 (racemic) [Example 2, (±)-6-Acetyl-4-(di-n-propylamino)-1,3,4,5-tetrahydrobenz[cd]indole] | 9.70 | 2.71 ± 0.06 | 2.64 ± 0.11 | 3.23 ± 0.11 | 2.60 ± 0.09 | 2.54 ± 0.14 | 3.25 ± 0.01 | 2.21 ± 0.05 | 1.79 ± 0.10 | 1.95 ± 0.04 | 1.27 ± 0.01 | 1.10 ± 0.06 | 2.04 ± 0.02 | 3.8 ± 0.5 | 3.6 ± 0.1 | 36.7 ± 1.2 | 33.4 ± 3.7 | 39.1 ± 1.1 | 13.8 ± 0.6 | –
CCCN(CCC)[C@H]1Cc2c[nH]c3ccc(C(C)=O)c(c23)C1 [Example 7, (4R)-(+)-6-acetyl-4-(di-n-propylamino)-1,3,4,5-tetrahydrobenz[cd]indole] | 9.66 | 2.68 ± 0.11 | 2.74 ± 0.07 | 3.00 ± 0.10 | 2.47 ± 0.07 | 2.59 ± 0.14 | – | 1.93 ± 0.07 | 1.80 ± 0.05 | 1.34 ± 0.07 | 1.43 ± 0.02 | 1.37 ± 0.07 | – | 4.1 ± 0.6 | 3.6 ± 0.1 | 21.8 ± 2.1 | 41.8 ± 1.7 | 41.5 ± 5.3 | – | –
CCCN(CCC)[C@@H]1Cc2c[nH]c3ccc(C(C)=O)c(c23)C1 [Example 8, (4S)-(-)-6-acetyl-4-(di-n-propylamino)-1,3,4,5-tetrahydrobenz[cd]indole] | 9.92 | 2.91 ± 0.12 | 2.65 ± 0.13 | 3.30 ± 0.09 | 2.58 ± 0.15 | 2.78 ± 0.13 | 2.63 ± 0.12 | 1.91 ± 0.08 | 1.47 ± 0.04 | 1.59 ± 0.10 | 1.31 ± 0.06 | 1.36 ± 0.04 | 1.35 ± 0.04 | 3.4 ± 0.2 | 3.8 ± 0.2 | 40.3 ± 1.8 | 47.0 ± 2.4 | 47.3 ± 2.3 | 45.4 ± 1.3 | 5HIAA ([1]; 0.1 mg/kg orally, 5 hrs before sacrifice): 1.67 ± 0.04 nmol/g; 5HIAA ([1]; 0.3 mg/kg orally, 5 hrs before sacrifice): 1.60 ± 0.07 nmol/g; 5HIAA ([1]; 1 mg/kg orally, 5 hrs before sacrifice): 1.74 ± 0.05 nmol/g; 5HIAA ([1]; 3 mg/kg orally, 5 hrs before sacrifice): 1.31 ± 0.08 nmol/g
CCCN(CCC)[C@H]1Cc2c[nH]c3ccc(C(=O)C(C)C)c(c23)C1 [Example 9, (4R)-(+)-6-(2-methylpropanoyl)-4-(di-n-propylamino)-1,3,4,5-tetrahydrobenz[cd]indole] | 9.80 | 2.76 ± 0.10 | 2.94 ± 0.11 | 3.08 ± 0.11 | 2.56 ± 0.07 | 2.94 ± 0.13 | 2.65 ± 0.07 | 2.44 ± 0.06 | 2.23 ± 0.09 | 1.82 ± 0.08 | 1.38 ± 0.02 | 1.22 ± 0.04 | 1.38 ± 0.08 | 4.1 ± 0.5 | 6.0 ± 1.3 | 9.1 ± 1.2 | 7.7 ± 1.8 | 40.8 ± 2.0 | 30.8 ± 4.5 | –
